Laboratory results: patent US9416128B2, “Fused heterocyclic compounds as ion channel modulators” (Gilead Sciences, Inc., priority 2013, dated 2016)
Where two headings read alike, the source gives them in different places.

Columns and labels:
hNaV1.1 (SCN1A) = hNaV1.1 (SCN1A) (Homo sapiens, UniProt P35498); test: Use-dependent inhibition of the CNS NaV1.1 sodium channel; format: cell-based; details: % inhibition; for inhibition at 1 µM / inhibition at 10 µM: 25 Hz; for inhibition at 1 µM: read-out: Nav1.1 UDB 25 Hz 1 uM; for inhibition at 10 µM: read-out: Nav1.1 UDB 25 Hz 10 uM
Protocol: HEK-293 cells stably expressing wild-type (WT) hNaV1.1 (SCN1A, NCBI# AB09354) were obtained from Millipore (Cat. # CYL3009) were used to record INa. Cells are maintained with standard tissue culture procedures and stable channel expression is maintained with 400 ug/mL G418 in the culture medium. Unless otherwise noted, all reagents are purchased from Sigma-Aldrich (St Louis, Mo., U.S.A.).
Assays measuring Use-Dependent Block (UDB) of NaV1.2 are performed on an automated electrophysiology platform, QPatch 16X or QPatch HT (Sophion Bioscience, Copenhagen, Denmark), using the whole cell patch clamp technique to measure currents through the cell membrane. Series resistance compensation is set to 100% and series resistance and whole-cell compensation are performed automatically. Currents stored in the Sophion Bioscience Oracle database (Sophion Bioscience, Copenhagen, Denmark). Analysis is performed using QPatch Assay software and data are compiled in Excel 2010 (Microsoft, Seattle, Wash., U.S.A.).
The internal (pipette) solution consists of (in mM) 105 CsF, 10 NaF, 20 CsCl, 2 EGTA, 10 HEPES, 10 Dextrose with a pH of 7.35 and osmolarity of 300 mOsmol/kg. The external (bath) solution contains in (mM): 145 NaCl, 4 KCl, 1.8 CaCl2, 1 MgCl2, 10 dextrose, 10 HEPES, with a pH of 7.35 and osmolarity of 310 mOsmol/kg. Experiments are carried out at 23-25° C.
Compound stocks are routinely made by the Gilead Sample Bank in vials to 10 mM in dimethyl sulfoxide (DMSO). In some cases, when compounds are not soluble in DMSO, they are made in 100% ethanol. Stocks are sonicated as necessary. […]
Cells are allowed to stabilize for 10 min after establishment of the whole-cell configuration before current is measured. The test compound is applied 2 times at 60 second intervals. After the second compound addition, a 200 second wait period was imposed to allow for equilibration.
Leak currents are subtracted by using an online P/4 procedure and all currents are low-pass Bessel filtered at 5 kHz and digitized at […].
Use-dependent block of NaV1.2 peak current is measured during pulse number 20 of a voltage pulse train (0 mV, 20 ms, 20 pulses, 25 Hz) from a holding potential of −120 mV. Currents are normalized to the peak current recorded in response to the first pulse in each frequency train. The voltage protocol for UDB was performed in the absence and presence of compound and percentage inhibition was calculated with respect to the compound free condition. Results are presented as mean percentage inhibition and data analysis is performed using QPatch Assay Software 4.0, and Excel 2002 (Microsoft, Seattle, Wash., U.S.A.).

[1] = target: wild-type human cardiac sodium channel, hNaV 1.5 (Peak INa) (Homo sapiens, UniProt Q14524); test: Peak INa screening assay (tonic block and use-dependent block); format: cell-based
Protocol: The assay uses an HEK293 (human embryonic kidney) cell line heterologously expressing the wild-type human cardiac sodium channel, hNaV 1.5, purchased from Millipore (Billerica, Mass.). No beta subunits were coexpressed with the Na channel alpha subunit. Cells are maintained with standard tissue culture procedures and stable channel expression is maintained with 400 μg/mL Geneticin in the culture medium. […] Currents are digitized at 25 kHz and low-pass filtered at 5 kHz and stored in the Sophion Bioscience Oracle database (Sophion Bioscience, Copenhagen, Denmark). Analysis is performed using QPatch Assay software and data are compiled in Excel 2010 (Microsoft, Seattle, Wash., U.S.A.). Compound stocks are routinely made by the Gilead Sample Bank in vials to 10 mM in dimethyl sulfoxide (DMSO). In some cases, when compounds are not soluble in DMSO, they are made in 100% ethanol. Stocks are sonicated as necessary. The extracellular solution for screening Late INa is composed of: 140 mM NaCl, 4 mM KCl, 1.8 mM CaCl2, 1 mM MgCl2, 10 mM HEPES and 10 mM Dextrose with pH adjusted to 7.35 using NaOH. The intracellular solution contains: 105 mM CsF, 20 mM CsCl, 10 NaF, 2 mM EGTA, 10 mM HEPES and 10 mM Dextrose with pH adjusted to 7.35 with CsOH. Compounds are diluted in extracellular solution using a MicroLab Nimbus (Hamilton Robotics, Reno, Nev.) to between 0.3 and 3 μM in glass vials and transferred to glass well plates before robotic addition to the cells. […] It is contemplated that the compounds of Formula I avoid significant block of peak INa. […] The intracellular solution used for the Peak INa assay is the same as outlined for the Late INa assay (see above). After establishing the whole cell recording configuration, channels were stimulated to open with low frequency (0.1 Hz) for so that the recording can be monitored and the extent to which the recording has stabilized can be assessed. The test compound is then applied at 1 or 3 μM was added 2 times at 60 second intervals. After the second compound addition, a 200 second wait period was imposed to allow for equilibration. Voltage protocols for TB and UDB are were performed in the absence and presence of compound and TB and UDB are calculated with respect to the compound free condition. Both TB and UDB were analyzed by incorporating rundown correction for the peak INa.

[2] = % inhibition, use-dependent block of peak INa at 3 uM, 3 Hz, pulse 50, read-out: Nav1.5 Peak UDB 3 Hz 3 uM
[3] = read-out: Nav1.5 Peak TB 3 uM, % inhibition, tonic block of peak INa at 3 uM, 0.1 Hz, holding -100 mV

Chain of wild-type human cardiac sodium channel, hNaV 1.5 (Peak INa) (Q14524 whole entry): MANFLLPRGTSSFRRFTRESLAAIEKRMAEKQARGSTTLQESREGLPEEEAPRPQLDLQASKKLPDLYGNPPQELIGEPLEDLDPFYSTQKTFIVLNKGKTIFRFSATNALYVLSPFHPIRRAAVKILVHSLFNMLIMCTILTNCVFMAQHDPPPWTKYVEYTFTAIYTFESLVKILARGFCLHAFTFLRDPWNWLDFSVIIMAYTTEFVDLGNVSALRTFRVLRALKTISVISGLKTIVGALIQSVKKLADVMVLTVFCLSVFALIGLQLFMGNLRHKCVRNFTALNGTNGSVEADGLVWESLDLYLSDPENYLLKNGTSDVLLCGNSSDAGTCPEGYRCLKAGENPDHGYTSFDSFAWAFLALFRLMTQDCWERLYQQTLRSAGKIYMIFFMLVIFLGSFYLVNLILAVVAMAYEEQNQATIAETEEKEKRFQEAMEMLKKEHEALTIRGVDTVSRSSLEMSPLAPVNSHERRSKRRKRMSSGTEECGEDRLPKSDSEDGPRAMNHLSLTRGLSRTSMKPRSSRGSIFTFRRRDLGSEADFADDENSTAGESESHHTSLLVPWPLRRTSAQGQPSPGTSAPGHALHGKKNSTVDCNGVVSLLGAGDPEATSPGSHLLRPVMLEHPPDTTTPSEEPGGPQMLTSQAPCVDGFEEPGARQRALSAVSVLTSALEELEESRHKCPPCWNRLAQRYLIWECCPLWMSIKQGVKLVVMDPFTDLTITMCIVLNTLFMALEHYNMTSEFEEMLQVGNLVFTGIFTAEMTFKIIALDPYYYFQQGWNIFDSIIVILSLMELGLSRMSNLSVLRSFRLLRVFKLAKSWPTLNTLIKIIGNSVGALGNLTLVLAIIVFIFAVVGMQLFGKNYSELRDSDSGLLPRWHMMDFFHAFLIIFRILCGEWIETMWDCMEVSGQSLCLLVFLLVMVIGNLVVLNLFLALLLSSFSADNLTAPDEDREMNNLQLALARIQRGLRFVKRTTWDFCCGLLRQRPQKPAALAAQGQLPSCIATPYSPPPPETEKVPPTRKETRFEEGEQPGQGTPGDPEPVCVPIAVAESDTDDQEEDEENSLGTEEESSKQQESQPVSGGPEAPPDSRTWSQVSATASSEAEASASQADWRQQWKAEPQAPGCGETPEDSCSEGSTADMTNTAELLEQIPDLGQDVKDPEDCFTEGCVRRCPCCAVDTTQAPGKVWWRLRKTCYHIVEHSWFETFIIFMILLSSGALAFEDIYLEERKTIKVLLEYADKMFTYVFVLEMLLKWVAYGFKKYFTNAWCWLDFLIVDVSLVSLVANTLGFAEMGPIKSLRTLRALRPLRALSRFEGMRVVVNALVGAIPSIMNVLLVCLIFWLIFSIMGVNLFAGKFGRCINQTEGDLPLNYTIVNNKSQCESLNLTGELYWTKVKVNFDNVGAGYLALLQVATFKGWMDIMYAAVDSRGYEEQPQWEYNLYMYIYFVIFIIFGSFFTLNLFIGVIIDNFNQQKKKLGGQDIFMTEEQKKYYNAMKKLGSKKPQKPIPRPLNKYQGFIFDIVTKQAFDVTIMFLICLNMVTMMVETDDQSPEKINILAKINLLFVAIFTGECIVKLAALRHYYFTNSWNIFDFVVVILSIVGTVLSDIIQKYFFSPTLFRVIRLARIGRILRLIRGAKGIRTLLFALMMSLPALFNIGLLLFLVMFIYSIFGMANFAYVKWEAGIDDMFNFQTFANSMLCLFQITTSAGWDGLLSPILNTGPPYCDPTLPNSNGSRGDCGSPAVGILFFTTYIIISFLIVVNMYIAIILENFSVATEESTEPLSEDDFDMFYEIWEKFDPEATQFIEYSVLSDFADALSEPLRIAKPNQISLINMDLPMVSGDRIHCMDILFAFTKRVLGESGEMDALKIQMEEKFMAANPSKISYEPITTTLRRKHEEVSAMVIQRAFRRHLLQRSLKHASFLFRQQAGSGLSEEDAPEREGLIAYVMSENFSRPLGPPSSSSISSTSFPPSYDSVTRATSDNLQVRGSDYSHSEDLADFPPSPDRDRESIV

COc1cc(OC(F)(F)F)ccc1-c1ccc2c(c1)CN(Cc1ncccn1)C(=O)O2 [Example 1, 6-(2-methoxy-4-(trifluoromethoxy)phenyl)-3-(pyrimidin-2-ylmethyl)-3,4-dihydro-2H-benzo[e][1,3]oxazin-2-one]
Nav1.1 UDB 25 Hz 1 uM (hNaV1.1 (SCN1A); use-dependent block at 1 uM): <5% | Nav1.1 UDB 25 Hz 10 uM (hNaV1.1 (SCN1A); use-dependent block at 10 uM): 34.4% | inhibition at 3 µM [1, 2]: 9.6% | inhibition at 3 µM [1, 3]: 26.7%

O=C1Oc2ccc(-c3ccc(C(F)(F)F)cc3)cc2CN1Cc1ccncc1 [Example 2, 3-(pyridin-4-ylmethyl)-6-(4-(trifluoromethyl)phenyl)-3,4-dihydro-2H-benzo[e][1,3]oxazin-2-one]
inhibition at 1 µM (hNaV1.1 (SCN1A); use-dependent block at 1 uM): 9.7% | inhibition at 10 µM (hNaV1.1 (SCN1A); use-dependent block at 10 uM): 22.6% | inhibition at 3 µM [1, 2]: 16.2% | inhibition at 3 µM [1, 3]: 18.5%

Cc1cc(-c2ccc3c(c2)CN(Cc2ncccn2)C(=O)O3)ccc1OC(F)(F)F [Example 5, 6-(3-methyl-4-(trifluoromethoxy)phenyl)-3-(pyrimidin-2-ylmethyl)-3,4-dihydro-2H-benzo[e][1,3]oxazin-2-one]
inhibition at 1 µM (hNaV1.1 (SCN1A); use-dependent block at 1 uM): < 5% | inhibition at 10 µM (hNaV1.1 (SCN1A); use-dependent block at 10 uM): 15.3% | inhibition at 3 µM [1, 2]: < 5% | inhibition at 3 µM [1, 3]: 10.1%

O=C1Oc2ccc(-c3ccc(Cl)c(F)c3)cc2CN1Cc1ncccn1 [Example 6, 6-(4-chloro-3-fluorophenyl)-3-(pyrimidin-2-ylmethyl)-3,4-dihydro-2H-benzo[e][1,3]oxazin-2-one]
inhibition at 1 µM (hNaV1.1 (SCN1A); use-dependent block at 1 uM): 26.7% | inhibition at 10 µM (hNaV1.1 (SCN1A); use-dependent block at 10 uM): 65.2% | inhibition at 3 µM [1, 2]: < 5% | inhibition at 3 µM [1, 3]: 19.9%

O=C1Oc2ccc(-c3ccc(OC(F)(F)F)cc3F)cc2CN1Cc1ncccn1 [Example 7, 6-(2-fluoro-4-(trifluoromethoxy)phenyl)-3-(pyrimidin-2-ylmethyl)-3,4-dihydro-2H-benzo[e][1,3]oxazin-2-one]
inhibition at 1 µM (hNaV1.1 (SCN1A); use-dependent block at 1 uM): 5.7% | inhibition at 10 µM (hNaV1.1 (SCN1A); use-dependent block at 10 uM): 42.4% | inhibition at 3 µM [1, 2]: < 5% | inhibition at 3 µM [1, 3]: 14.9%

Cc1cc(OC(F)(F)F)ccc1-c1ccc2c(c1)CN(Cc1ncccn1)C(=O)O2 [Example 8, 6-(2-methyl-4-(trifluoromethoxy)phenyl)-3-(pyrimidin-2-ylmethyl)-3,4-dihydro-2H-benzo[e][1,3]oxazin-2-one]
inhibition at 1 µM (hNaV1.1 (SCN1A); use-dependent block at 1 uM): < 5% | inhibition at 10 µM (hNaV1.1 (SCN1A); use-dependent block at 10 uM): 11.6% | inhibition at 3 µM [1, 2]: < 5% | inhibition at 3 µM [1, 3]: 12.5%

COc1cc(OC(F)(F)F)ccc1-c1ccc2c(c1)CN(Cc1ncccn1)C(=O)O2 [Example 9, 6-(2-methoxy-4-(trifluoromethoxy)phenyl)-3-(pyrimidin-2-ylmethyl)-3,4-dihydro-2H-benzo[e][1,3]oxazin-2-one]
inhibition at 1 µM (hNaV1.1 (SCN1A); use-dependent block at 1 uM): < 5% | inhibition at 10 µM (hNaV1.1 (SCN1A); use-dependent block at 10 uM): 34.4% | Nav1.5 Peak TB 3 uM ([1]; % inhibition, tonic block of peak INa at 3 uM, 0.1 Hz, holding -100 mV): 18.9% | Nav1.5 Peak UDB 3 Hz 3 uM ([1]; % inhibition, use-dependent block of peak INa at 3 uM, 3 Hz, pulse 50): <5%

O=C1Oc2ccc(-c3ccc(OC(F)(F)F)c(F)c3)cc2CN1Cc1ncccn1 [Example 10, 6-(3-fluoro-4-(trifluoromethoxy)phenyl)-3-(pyrimidin-2-ylmethyl)-3,4-dihydro-2H-benzo[e][1,3]oxazin-2-one]
inhibition at 1 µM (hNaV1.1 (SCN1A); use-dependent block at 1 uM): 35% | inhibition at 10 µM (hNaV1.1 (SCN1A); use-dependent block at 10 uM): 75.9% | inhibition at 3 µM [1, 2]: 10.8% | inhibition at 3 µM [1, 3]: 14.2%

CC1c2cc(-c3ccc(Cl)c(F)c3)ccc2OC(=O)N1Cc1ncccn1 (stereo not shown) [Example 11, 6-(4-chloro-3-fluorophenyl)-4-methyl-3-(pyrimidin-2-ylmethyl)-3,4-dihydro-2H-benzo[e][1,3]oxazin-2-one]
inhibition at 1 µM (hNaV1.1 (SCN1A); use-dependent block at 1 uM): 21% | inhibition at 10 µM (hNaV1.1 (SCN1A); use-dependent block at 10 uM): 81.1% | inhibition at 3 µM [1, 2]: 5.6% | inhibition at 3 µM [1, 3]: 19.4%

Cc1cnc(CN2Cc3cc(-c4ccc(OC(F)(F)F)cc4)ccc3OC2=O)nc1 [Example 12, 3-((5-methylpyrimidin-2-yl)methyl)-6-(4-(trifluoromethoxy)phenyl)-3,4-dihydro-2H-benzo[e][1,3]oxazin-2-one]
inhibition at 1 µM (hNaV1.1 (SCN1A); use-dependent block at 1 uM): 7.5% | inhibition at 10 µM (hNaV1.1 (SCN1A); use-dependent block at 10 uM): 73.9% | inhibition at 3 µM [1, 2]: < 5% | inhibition at 3 µM [1, 3]: 16.6%

Cc1cnc(CN2Cc3cc(-c4ccc(C(F)(F)F)cc4)ccc3OC2=O)nc1 [Example 13, 3-((5-methylpyrimidin-2-yl)methyl)-6-(4-(trifluoromethyl)phenyl)-3,4-dihydro-2H-benzo[e][1,3]oxazin-2-one]
inhibition at 1 µM (hNaV1.1 (SCN1A); use-dependent block at 1 uM): 37.5% | inhibition at 10 µM (hNaV1.1 (SCN1A); use-dependent block at 10 uM): 88.8% | inhibition at 3 µM [1, 2]: 5.6% | inhibition at 3 µM [1, 3]: 29.4%

Cc1cnc(CN2Cc3cc(-c4ccc(OC(F)(F)F)cc4F)ccc3OC2=O)nc1 [Example 14, 6-(2-fluoro-4-(trifluoromethoxy)phenyl)-3-((5-methylpyrimidin-2-yl)methyl)-3,4-dihydro-2H-benzo[e][1,3]oxazin-2-one]
inhibition at 1 µM (hNaV1.1 (SCN1A); use-dependent block at 1 uM): < 5% | inhibition at 10 µM (hNaV1.1 (SCN1A); use-dependent block at 10 uM): 43.8% | inhibition at 3 µM [1, 2]: < 5% | inhibition at 3 µM [1, 3]: 24%

O=C1Oc2ccc(-c3ccc(OC(F)(F)F)cc3)cc2CN1CCc1ncccn1 [Example 16, 3-(2-(pyrimidin-2-yl)ethyl)-6-(4-(trifluoromethoxy)phenyl)-3,4-dihydro-2H-benzo[e][1,3]oxazin-2-one]
inhibition at 1 µM (hNaV1.1 (SCN1A); use-dependent block at 1 uM): 17.3% | inhibition at 10 µM (hNaV1.1 (SCN1A); use-dependent block at 10 uM): 52.2% | inhibition at 3 µM [1, 2]: 5.3% | inhibition at 3 µM [1, 3]: 22.1%

O=C1Oc2ccc(-c3ccc(C(F)(F)F)cc3)cc2CN1CCc1ncccn1 [Example 17, 3-(2-(pyrimidin-2-yl)ethyl)-6-(4-(trifluoromethyl)phenyl)-3,4-dihydro-2H-benzo[e][1,3]oxazin-2-one]
inhibition at 1 µM (hNaV1.1 (SCN1A); use-dependent block at 1 uM): 34.8% | inhibition at 10 µM (hNaV1.1 (SCN1A); use-dependent block at 10 uM): 60.9% | inhibition at 3 µM [1, 2]: < 5% | inhibition at 3 µM [1, 3]: 12.9%

COc1cc(OC(F)(F)F)ccc1-c1ccc2c(c1)CN(CCc1ncccn1)C(=O)O2 [Example 18, 6-(2-methoxy-4-(trifluoromethoxy)phenyl)-3-(2-(pyrimidin-2-yl)ethyl)-3,4-dihydro-2H-benzo[e][1,3]oxazin-2-one]
inhibition at 1 µM (hNaV1.1 (SCN1A); use-dependent block at 1 uM): 16.9% | inhibition at 10 µM (hNaV1.1 (SCN1A); use-dependent block at 10 uM): 73.4% | inhibition at 3 µM [1, 2]: < 5% | inhibition at 3 µM [1, 3]: 12.1%

CCCOc1cc(C(F)(F)F)ccc1-c1ccc2c(c1)CN(CCc1ncccn1)C(=O)O2 [Example 19, 6-(2-propoxy-4-(trifluoromethyl)phenyl)-3-(2-(pyrimidin-2-yl)ethyl)-3,4-dihydro-2H-benzo[e][1,3]oxazin-2-one]
inhibition at 1 µM (hNaV1.1 (SCN1A); use-dependent block at 1 uM): 30.8% | inhibition at 10 µM (hNaV1.1 (SCN1A); use-dependent block at 10 uM): 78.4% | inhibition at 3 µM [1, 2]: 9.6% | inhibition at 3 µM [1, 3]: 26.7%
